Assay results taken from US9701670B2, “Pyrazolyl-ureas as kinase inhibitors” (RESPIVERT LIMITED, priority 2013, dated 2017).

How the values were obtained:
[1] = target: p38 MAPKα isoform (MAPK14) (Homo sapiens (Human), UniProt Q16539); test: p38 MAPKα enzyme inhibition (FRET, Z-LYTE), Method 2; type: biochemical; settings: Method 2, different laboratory (Table 4a2)
[2] = Cryopreserved hepatocyte stability; type: in vitro ADME; settings: scaled from intrinsic clearance, mean of two experiments
Procedure: Formulae CIint(tissue clearance) mL/min/kg=[0.693/t½(min)]×[1/microsomal protein concentration mg/mL]×[mg microsomes/g liver]×[g liver/kg body weight] […] The incubations were performed at 37° C. with 100 μL samples taken from the incubation, at 0, 10, 20, 45 and 90 minutes, and reactions terminated by addition of 100 μL of acetonitrile containing carbamazepine as analytical internal standard. […] Half-life values were calculated from the relationship T1/2(min)=−0.693/λ • where λ was the slope of the Ln concentration vs time curve. • Standard compounds testosterone, midazolam and 4-methylumbelliferone are included in the assay design.
CIint(Tissue Clearance) mL/min/kg=[0.693/t½(min)]×[1/hepatocyte concentration (million cells/mL)]×[million cells/g liver]×[g liver/kg body weight] CIint(Hepatic clearance) mL/min/kg=hepatic blood flow×CIint/(hepatic blood flow+CIint) Hepatic extraction ratio (Eh)=CIint(Hepatic clearance) mL/min/kg/hepatic blood flow (mL/min/kg)

[3] = tested on: Intestinal mucosa biopsies from the inflamed regions of the colon of IBD patients; test: (h) Human biopsy assay (cytokine release); type: cell-based
Procedure: Intestinal mucosa biopsies are obtained from the inflamed regions of the colon of IBD patients. The biopsy material is cut into small pieces (2-3 mm) and placed on steel grids in an organ culture chamber at 37° C. in a 5% CO2/95% O2 atmosphere in serum-free media. DMSO control or test compounds at the desired concentration are added to the tissue and incubated for 24 hr in the organ culture chamber. The supernatant is harvested for determination of IL-6, IL-8, […] and TNFα levels by R&D ELISA.

[4] = Plasma pharmacokinetics in beagle dogs; type: in vivo, male beagle dogs; settings: Dog
Procedure: A study was conducted by Sai Life Sciences (Hinjewadi, Pune, India) to investigate the plasma pharmacokinetics of the compound of Example 77 in male beagle dogs following a single intravenous or oral administration.
A group of three male beagle dogs were administered orally with an aqueous suspension formulation (having 2% HPMC and 0.5% Tween 80) of the compound of Example 77, at a dose of 1 mg/kg. In addition, a group of three male beagle dogs were administered intravenously with a solution formulation (in 5% v/v DMSO, 7.5% w/v Solutol HS 15 and 87.5% saline (0.9% w/v NaCl)) of the compound of Example 77, at a dose of 0.05 mg/kg. Blood samples (approximately 1.5 mL) were collected from jugular vein such that the samples were obtained at pre-dose, 0.25, 0.5, 1, 2, 4, 6, 8, and 24 hr (p.o.) and pre-dose, 0.08, 0.25, 0.5, 1, 2, 4, 8, 12, 24 and 32 hr (i.v.) post dose. The blood samples were collected from a set of three dogs at each time point in labelled micro centrifuge tube containing K2EDTA as anticoagulant. Plasma samples were separated by centrifugation at 2500 g for 10 min of whole blood and stored below −70° C. until bioanalysis. All samples were processed for analysis by protein precipitation using acetonitrile and analyzed with LC-MS/MS method (LLOQ=0.50 ng/mL). Pharmacokinetic parameters were calculated using the non-compartmental analysis tool of Phoenix WinNonlin® (Version 6.3).

B-Raf = B-Raf (Homo sapiens (Human), UniProt P15056); test: Enzyme binding assay (Kinomescan)
Chain of B-Raf (P15056 whole entry): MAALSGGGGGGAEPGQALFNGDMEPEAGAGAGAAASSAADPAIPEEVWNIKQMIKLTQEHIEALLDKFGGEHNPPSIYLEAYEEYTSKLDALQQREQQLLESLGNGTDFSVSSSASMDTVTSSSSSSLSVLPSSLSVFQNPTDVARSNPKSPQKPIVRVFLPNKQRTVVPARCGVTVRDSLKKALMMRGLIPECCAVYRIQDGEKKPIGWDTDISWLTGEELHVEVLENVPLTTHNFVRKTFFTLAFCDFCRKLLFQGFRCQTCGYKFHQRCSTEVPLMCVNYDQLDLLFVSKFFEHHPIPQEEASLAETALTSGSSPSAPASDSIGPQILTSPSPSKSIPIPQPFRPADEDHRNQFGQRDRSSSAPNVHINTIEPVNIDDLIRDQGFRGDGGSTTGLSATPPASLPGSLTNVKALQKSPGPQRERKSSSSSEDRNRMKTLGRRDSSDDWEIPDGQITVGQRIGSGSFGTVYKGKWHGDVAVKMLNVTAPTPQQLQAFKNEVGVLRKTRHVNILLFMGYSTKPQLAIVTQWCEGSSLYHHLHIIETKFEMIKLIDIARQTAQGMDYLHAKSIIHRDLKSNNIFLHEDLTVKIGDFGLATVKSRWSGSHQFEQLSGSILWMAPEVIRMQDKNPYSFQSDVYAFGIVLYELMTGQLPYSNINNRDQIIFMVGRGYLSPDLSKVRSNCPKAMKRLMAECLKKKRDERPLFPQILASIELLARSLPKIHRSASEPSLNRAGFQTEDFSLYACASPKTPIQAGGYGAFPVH
Procedure: The kinase enzyme binding activities of compounds disclosed herein were determined using a proprietary assay which measures active site-directed competition binding to an immobilized ligand (Fabian, M. A. et al., Nature Biotechnol., 2005, 23:329-336). These assays were conducted by DiscoverX (formerly Ambit; San Diego, Calif.). The percentage inhibition produced by incubation with a test compound is calculated relative to the non-inhibited control.

[5] = male, beagle, plasma, intravenous 0.05 mg/kg

Chain of p38 MAPKα isoform (MAPK14) (Q16539 whole entry, canonical isoform): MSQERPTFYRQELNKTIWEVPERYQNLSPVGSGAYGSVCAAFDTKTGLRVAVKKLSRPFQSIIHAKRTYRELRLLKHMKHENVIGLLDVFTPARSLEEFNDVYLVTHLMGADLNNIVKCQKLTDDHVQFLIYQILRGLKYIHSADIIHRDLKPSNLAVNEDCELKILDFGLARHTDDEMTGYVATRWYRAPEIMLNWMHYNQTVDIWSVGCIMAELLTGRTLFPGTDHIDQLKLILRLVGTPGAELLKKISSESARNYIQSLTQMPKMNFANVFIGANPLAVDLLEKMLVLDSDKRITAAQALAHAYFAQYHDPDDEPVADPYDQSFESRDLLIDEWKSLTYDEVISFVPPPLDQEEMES

C#Cc1cc(Nc2nccc(Oc3ccc(NC(=O)Nc4cc(C(C)(C)C)nn4-c4ccc(OC)cc4)c4ccccc34)n2)cc(C(=O)NCCN2CCOCC2)c1 [Example 77, 3-((4-((4-(3-(3-(tert-Butyl)-1-(4-methoxyphenyl)-1H-pyrazol-5-yl)ureido)-naphthalen-1-yl)oxy)pyrimidin-2-yl)amino)-5-ethynyl-N-(2-morpholinoethyl)benzamide]
IC50 [1]: 22 nM
Mean hepatic extraction ratio (Eh) ([2]; dog hepatocytes): 0.87
Mean hepatic extraction ratio (Eh) ([2]; human hepatocytes): 0.69
Mean hepatic extraction ratio (Eh) ([2]; rat hepatocytes): 0.55
Cytokine release from biopsies of UC patients IL-1b release ([3]; 1 μg/mL, DMSO control 100%): 26 ± 16%
Cytokine release from biopsies of UC patients IL-6 release ([3]; 1 μg/mL, DMSO control 100%): 67 ± 128%
Cytokine release from biopsies of UC patients IL-8 release ([3]; 1 μg/mL, DMSO control 100%): 36 ± 117%
cytokine release from biopsies from ulcerative colitis (UC) patients ([3]; added to biopsies in vitro): markedly reduced IL-1b, IL-6 and IL-8 release
plasma exposure after oral administration ([4]; 1 mg/kg p.o.): no plasma exposure at all was observed
Fpo ([4]; 1 mg/kg p.o., Plasma): 0%
AUC(0-inf) [4, 5]: 37 ng·h/mL
AUC(0-t) [4, 5]: 33.6 ng·h/mL
C0 [4, 5]: 283 ng/mL
Vd [4, 5]: 1.8 L/kg
clearance [4, 5]: 25.4 mL/min/kg
half-life [4, 5]: 2.5 h
effect on the binding of the kinase B-Raf to its standard ligand (B-Raf): did not have any effect
